Source: patent US4500526A, “Cephalosporin derivatives” (Bristol-Myers Company, priority 1983, dated 1985)
Converted amounts (≈) assume the structure as drawn. Like-named read-outs stand apart in the source and are kept apart here.

Experiments:
[1] = system: Penicillinresistant S. aureus (5 strains); experiment: MIC, two-fold serial agar dilution, group (G+)-Ib; type: cell-based; conditions: Staphylococcus aureus, read-out: Geometric Mean of MIC
Method: (§1) In the primary evaluation of the compounds of this invention, the Minimum Inhibitory Concentrations (MIC's) of the compounds were determined by the two-fold serial agar dilution method in Mueller-Hinton agar against 32 strains of test organisms in six groups. The sample weights of the test compounds were adjusted according to the purity of each compound, so as to give a more accurate measure of the MIC's.
(G+)Ib: Penicillinresistant S. aureus (5 strains)

[2] = Mouse blood levels after single intramuscular injection; type: in vivo, mice
Method: The absorption of some of the preferred compounds were determined in mice following a single intramuscular injection of the test compound (dissolved in 0.1M phosphate buffer; pH 7) at a dosage of 20 mg/kg. Blood samples were collected from the orbital sinuses into heparinized capillary tubes and assayed in Nutrient Agar (pH 6.6) using E. coli Ess-22-31 as the test organism. The blood levels at various time intervals, the half-life values (t1/2) and the areas under the curve (AUC) are shown in Table 2.

[3] = system: Penicillinsensitive S. aureus (5 strains); experiment: MIC, two-fold serial agar dilution, group (G+)-Ia; type: cell-based; conditions: Staphylococcus aureus; (G+)-Ia, 5 strains, Mueller-Hinton agar; read-out: Geometric Mean of MIC
Method: as §1
(G+)Ia: Penicillinsensitive S. aureus (5 strains)

[4] = system: Cephalothinsensitive E. coli (2 strains), Kl. pneumoniae (1 strain) and Pr. mirabilis (2 strains); experiment: MIC, two-fold serial agar dilution, group (G-)-Ia; type: cell-based; conditions: 5 strains, Mueller-Hinton agar, read-out: Geometric Mean of MIC
Method: as §1
(G-)Ia: Cephalothinsensitive E. coli (2 strains), Kl. pneumoniae (1
strain) and Pr. mirabilis (2 strains)

[5] = system: M. morganii (1 strain), Ent. cloacae (2 strains) and Ser. marcescens (2 strains); experiment: MIC, two-fold serial agar dilution, group (G-)-II; type: cell-based; conditions: read-out: Geometric Mean of MIC
Method: as §1
(G-)II: M. morganii (1 strain), Ent. cloacae (2 strains) and Ser.

[6] = system: Ps. aeruginosa (6 strains); experiment: MIC, two-fold serial agar dilution, group (G-)-III; type: cell-based; conditions: Pseudomonas aeruginosa, read-out: Geometric Mean of MIC
Method: as §1
(G-)III: Ps. aeruginosa (6 strains)

S. aureus Smith = experiment: Median protective dose in infected mice; type: in vivo; conditions: Staphylococcus aureus, im, immediately after intraperitoneal challenge, read-out: PD50
Method: (§2) The median protective dose (PD50) of some of the preferred compounds against various microorganisms was determined in mice by intramuscular administration of the test compound immediately after an intraperitoneal bacterial challenge.

E. coli Juhl = experiment: Median protective dose in infected mice; type: in vivo; conditions: Escherichia coli, im, immediately after intraperitoneal challenge, read-out: PD50
Method: as §2

P. aeruginosa A9843 = experiment: Median protective dose in infected mice; type: in vivo; conditions: Pseudomonas aeruginosa, im, immediately after intraperitoneal challenge, read-out: PD50
Method: as §2

[7] = system: Cephalothinresistant E. coli (3 strains) and Kl. pneumoniae (3 strains); experiment: MIC, two-fold serial agar dilution, group (G-)-Ib; type: cell-based; conditions: Escherichia coli, read-out: Geometric Mean of MIC
Method: as §1
(G-)Ib: Cephalothinresistant E. coli (3 strains) and Kl. pneumoniae (3

[8] = (G+)-Ib, 5 strains, Mueller-Hinton agar
[9] = (G-)-III, 6 strains, Mueller-Hinton agar
[10] = (G-)-II, 5 strains, Mueller-Hinton agar

| Compound | MIC [1, 8] [µg/mL] | AUC ([2]; in vivo, im, 20 mg/kg) [ng·h/mL] | concentration at 10 min ([2]; in vivo, im, 20 mg/kg) [ng/mL] | concentration at 20 min ([2]; in vivo, im, 20 mg/kg) [ng/mL] | concentration at 0.5 h ([2]; in vivo, im, 20 mg/kg) [ng/mL] | concentration at 40 min ([2]; in vivo, im, 20 mg/kg) [ng/mL] | concentration at 50 min ([2]; in vivo, im, 20 mg/kg) [ng/mL] | concentration at 1 h ([2]; in vivo, im, 20 mg/kg) [ng/mL] | concentration at 1.5 h ([2]; in vivo, im, 20 mg/kg) [ng/mL] | concentration at 2 h ([2]; in vivo, im, 20 mg/kg) [ng/mL] | half-life ([2]; in vivo, im, 20 mg/kg) [min] | MIC [3] [µg/mL] | MIC [4] [µg/mL] | MIC [6, 9] [µg/mL] | ED50 (S. aureus Smith) [mg/kg] | ED50 (E. coli Juhl) [mg/kg] | ED50 (P. aeruginosa A9843) [mg/kg] | MIC [7] [µg/mL] | MIC [5, 10] [µg/mL] | also measured |
| --- | --- | --- | --- | --- | --- | --- | --- | --- | --- | --- | --- | --- | --- | --- | --- | --- | --- | --- | --- | --- |
| C=CCO/N=C(\C(=O)NC1C(=O)N2C(C(=O)[O-])=C(C[n+]3ccc4scnc4c3)CSC12)c1csc(N)n1 (centres unmarked) [Ic, 7-[(Z)-2-Allyloxyimino-2-(2-aminothiazol-4-yl)acetamido]-3-{(5-thiazolo[4,5-c]pyridino)methyl}-3-cephem-4-carboxylate] | 0.56 (≈ 1 µM) | 12000 | 18000 | 14000 | 10000 | 8200 | 5800 | 3600 | 1900 | 1300 | 28 | 0.32 (≈ 0.574 µM) | 0.053 (≈ 0.095 µM) | 3.9 (≈ 6.99 µM) | 1.1 | 0.048 | 8.6 | 0.44 (≈ 0.789 µM) | – | MIC [5]: 0.66 µg/mL (≈ 1.18 µM) |
| C#CCO/N=C(\C(=O)NC1C(=O)N2C(C(=O)[O-])=C(C[n+]3ccc4sc(N)nc4c3)CS[C@H]12)c1csc(N)n1 (some centres unmarked) [If, 7-[(Z)-2-(2-Aminothiazol-4-yl)-2-(propargyloxyimino)acetamido]-3-(2-amino-5-thiazolo[4,5-c]pyridinio)methyl-3-cephem-4-carboxylate] | – | 9100 | 14000 | 11000 | 7300 | 4200 | 3600 | 3300 | 2000 | 1200 | 34 | 0.3 (≈ 0.526 µM) | 0.029 (≈ 0.0508 µM) | 2.1 (≈ 3.68 µM) | 0.36 | 0.013 | 3.3 | 0.4 (≈ 0.701 µM) | 0.35 (≈ 0.613 µM) | MIC [1]: 0.8 µg/mL (≈ 1.4 µM) |
| CO/N=C(\C(=O)NC1C(=O)N2C(C(=O)[O-])=C(C[n+]3ccc4sc(SC)nc4c3)CSC12)c1csc(N)n1 (centres unmarked) [Ii, 7-[(Z)-2-(2-Aminothiazol-4-yl)-2-methoxyiminoacetamido]-3-[{5-(2-methylthiothiazolo[4,5-c]pyridinio)}methyl]-3-cephem-4-carboxylate] | – | 6800 | 14000 | 10000 | 5900 | 4800 | 2400 | 1500 | 250 | < 100 | 13 | 0.23 (≈ 0.398 µM) | 0.025 (≈ 0.0433 µM) | – | – | – | – | 0.13 (≈ 0.225 µM) | 0.24 (≈ 0.415 µM) | MIC [1]: 0.2 µg/mL (≈ 0.346 µM); MIC [6]: 5.5 µg/mL (≈ 9.52 µM) |
| Nc1nc(/C(=N/OC2(C(=O)O)CCC2)C(=O)NC2C(=O)N3C(C(=O)[O-])=C(C[n+]4ccc5sc(N)nc5c4)CS[C@H]23)cs1 (some centres unmarked) [Ik, 7-[(Z)-2-(2-Aminothiazol-4-yl)-2-(1-carboxycyclobut-1-oxyimino)-acetamido]-3-(2-amino-5-thiazolo[4,5-c]pyridinio)methyl-3-cephem-4-carboxylate] | 3.3 (≈ 5.23 µM) | – | 20000 | 16000 | 11000 | 8200 | 5200 | 4100 | 1800 | 670 | 22 | 1.4 (≈ 2.22 µM) | 0.015 (≈ 0.0238 µM) | 1.4 (≈ 2.22 µM) | 3 | 0.046 | 5.5 | 0.36 (≈ 0.571 µM) | 0.27 (≈ 0.428 µM) | AUC ([2]; blood, mice, 20 mg/kg im, read-out: AUC): 13000 ng·h/mL |
| Cc1nc2c[n+](CC3=C(C(=O)[O-])N4C(=O)C(NC(=O)/C(=N\OC5(C(=O)O)CCC5)c5csc(N)n5)[C@H]4SC3)ccc2s1 (some centres unmarked) [Im, 7-[(Z)-2-(2-Aminothiazol-4-yl)-2-(1-carboxycyclobut-1-oxyimino)-acetamido]-3-(2-methyl-5-thiazolo[4,5-c]pyridinio)methyl-3-cephem-4-carboxylate] | 8.8 (≈ 14 µM) | 7100 | 13000 | 10000 | 6900 | 4800 | 2700 | 2000 | 480 | < 200 | 16 | 3.4 (≈ 5.4 µM) | 0.027 (≈ 0.0429 µM) | – | 9.4 | 0.1 | 9 | 0.56 (≈ 0.889 µM) | 0.25 (≈ 0.397 µM) | MIC [6]: 2.5 µg/mL (≈ 3.97 µM) |
| CO/N=C(\C(=O)NC1C(=O)N2C(C(=O)[O-])=C(C[n+]3ccc4sc(N)nc4c3)CSC12)c1csc(N)n1 (centres unmarked) [In, 7-[(Z)-2-(2-Aminothiazol-4-yl)-2-methoxyiminoacetamido]-3-[{5-(2-aminothiazolo[4,5-c]pyridinio)}methyl]-3-cephem-4-carboxylate] | 0.72 (≈ 1.32 µM) | 11000 | 14000 | 14000 | 7600 | 7000 | 4400 | 3900 | 2900 | 1000 | 29 | 0.32 (≈ 0.585 µM) | 0.01 (≈ 0.0183 µM) | 1.9 (≈ 3.48 µM) | 0.9 | < 0.01 | 2.8 | 0.096 (≈ 0.176 µM) | 0.17 (≈ 0.311 µM) | – |
| CO/N=C(\C(=O)NC1C(=O)N2C(C(=O)[O-])=C(C[n+]3ccc4sc(NC(C)=O)nc4c3)CS[C@H]12)c1csc(N)n1 (some centres unmarked) [Ip, 7-[(Z)-2-(2-Aminothiazol-4-yl)-2-methoxyiminoacetamido]-3-(2-acetylamino-5-thiazolo[4,5-c]pyridinio)methyl-3-cephem-4-carboxylate] | 0.8 (≈ 1.36 µM) | 16000 | 24000 | 18000 | 13000 | 10000 | 6800 | 5500 | 2500 | 1400 | 27 | 0.34 (≈ 0.578 µM) | 0.037 (≈ 0.0629 µM) | 11 (≈ 18.7 µM) | 1 | 0.29 | 16 | 0.4 (≈ 0.68 µM) | 0.68 (≈ 1.16 µM) | – |
| CO/N=C(\C(=O)NC1C(=O)N2C(C(=O)[O-])=C(C[n+]3ccc4sc(NC(=O)CN)nc4c3)CS[C@H]12)c1csc(N)n1 (some centres unmarked) [Iq, 7-[(Z)-2-(2-Aminothiazol-4-yl)-2-methoxyiminoacetamido]-3-(2-glycylamino-5-thiazolo[4,5-c]pyridinio)methyl-3-cephem-4-carboxylate] | 2.4 (≈ 3.98 µM) | 16000 | 15000 | 17000 | 12000 | 11000 | 9900 | 8800 | 3400 | 1500 | 28 | 0.92 (≈ 1.52 µM) | 0.038 (≈ 0.0629 µM) | 10 (≈ 16.6 µM) | 1.8 | 0.015 | 12 | 0.61 (≈ 1.01 µM) | – | MIC [5]: 0.69 µg/mL (≈ 1.14 µM) |
| CO/N=C(\C(=O)NC1C(=O)N2C(C(=O)[O-])=C(C[n+]3ccc4sc(C(N)=O)nc4c3)CS[C@H]12)c1csc(N)n1 (some centres unmarked) [Ix, 7-[(Z)-2-(2-Aminothiazol-4-yl)-2-methoxyiminoacetamido]-3-(2-carbamoyl-5-thiazolo[4,5-c]pyridinio)methyl-3-cephem-4-carboxylate] | 0.8 (≈ 1.39 µM) | 19000 | 20000 | 18000 | 20000 | 13000 | 11000 | 7000 | 4200 | 2100 | 31 | 0.53 (≈ 0.922 µM) | 0.022 (≈ 0.0383 µM) | 2.8 (≈ 4.87 µM) | 1.5 | 0.013 | – | 0.2 (≈ 0.348 µM) | 0.39 (≈ 0.679 µM) | – |
